Assay results taken from paper PMC12217481, “Structure and mechanism of taniborbactam inhibition of the cefepime-hydrolyzing, partial R2-loop deletion Pseudomonas-derived cephalosporinase variant PDC-88” (Antimicrobial Agents and Chemotherapy, 2025).
Converted amounts (≈) assume the structure as drawn. Read-outs that look alike come from different tables or passages of the source.

Experiments:
[1] = system: E. coli DH10B/pTU626 (PDC-89); test: Broth microdilution MIC, isogenic E. coli expressing PDC-89; type: cell-based; conditions: Escherichia coli
Protocol: (§1) Genetic constructs used for minimum inhibitory concentration (MIC) testing were designed by Venatorx Pharmaceuticals and codon-optimized for use in E. coli and synthesized by Twist Bioscience as described previously ([9]). […] DH10B cells expressing an empty pET24a(+) vector (Novagen) were also grown, and the plasmid purified. Both pCR4-TOPO-PDC-88 and empty pET24a(+) were cut with BamHI and NdeI, the digests run on low-melting point agarose gels, and the bands of interest excised and ligated to yield a PDC-88 expressing pET24a(+) construct with the His tag removed. The PDC-3 expression construct was created in a similar manner but starting with a previously described pBC SK(−) vector ([42]). The final plasmids were grown in E. coli DH10B cells and purified.
(§2) Modal broth microdilution MICs (or median broth microdilution MICs where appropriate) were determined in accordance with Clinical and Laboratory Standards Institute (CLSI) M07 guidelines ([43]). Isogenic E. coli DH10B cells expressing the abovementioned plasmid-encoded PDC constructs were used. […] CLSI quality control strains Escherichia coli NCTC 13353, E. coli ATCC 35218, and Klebsiella pneumoniae ATCC 700603 were used during testing ([24]).

[2] = system: E. coli DH10B/pTU629 (PDC-92); test: Broth microdilution MIC, isogenic E. coli expressing PDC-92; type: cell-based; conditions: Escherichia coli
Protocol: as §1, §2

[3] = target: T1, PDC-88 (Pseudomonas aeruginosa, UniProt P24735, DEL316-317/G27D/G391A/T105A/V205L/V356I); test: Spectrophotometric β-lactam hydrolysis (progress curves, steady-state kinetics) by PDC-88; type: biochemical
T1 construct: NdeI 5′-[…]-3ʹ and BamHI 5ʹ-[…]-3ʹ; His tag removed) (N); made in house; host or cells: E. coli BL21-CodonPlus (DE3)-RP, pET24a(+)
Protocol: (§3) In order to determine the impact of the PDC-88 variant on hydrolysis, we determined hydrolysis progress curves for PDC-3, PDC-88, and a strongly hydrolyzing comparator (NDM-1 or PER-2) for cefepime (FEP, Fig. 3A), ceftazidime (CAZ, Fig. 3B), ceftolozane (TOL, Fig. 3C), and aztreonam (ATM, Fig. 3D).
(§4) β-Lactamase kinetic and inhibitor constants were determined using an Agilent 8453 UV-Visible Spectrophotometer to record progress curves and determine initial rates and other kinetic parameters as appropriate. Reactions were carried out in 1× phosphate-buffered saline (PBS) (pH 7.4) at room temperature in a 0.2 cm path-length quartz cuvette (Hellma Analytics). Reads were taken every 10 s to minimize UV-mediated background hydrolysis.
(§5) The extinction coefficients used were: nitrocefin, Δε482 = 17,400 M^−1 cm^−1, and cefepime, Δε260 = −10,000 M^−1 cm^−1.
(§6) The kinetic constants KM and Vmax were determined using a nonlinear least-squares regression of the data to the Henri-Michaelis-Menten equation (equation 1) in Origin Version 2020b (OriginLab, Northampton, MA), where v is the velocity of the reaction; Vmax is the theoretical maximum velocity; KM is the Michaelis constant; and [S] is the substrate concentration: […]

[4] = system: PDC-88; test: as above; type: biochemical, Pseudomonas aeruginosa; conditions: cefepime as substrate
Protocol: as §3, §4, §5, §6

[5] = system: E. coli DH10B/pTU625 (PDC-88); test: Broth microdilution MIC, isogenic E. coli expressing PDC-88; type: cell-based, Escherichia coli; conditions: for MIC: Escherichia coli
Protocol: as §1, §2

[6] = target: T2, PDC-3 (Pseudomonas aeruginosa, UniProt P24735, T105A); test: Spectrophotometric β-lactam hydrolysis (progress curves, steady-state kinetics) by PDC-3; type: biochemical
T2 construct: The PDC-3 expression construct was created in a similar manner but starting with a previously described pBC SK(−) vector; made in house; host or cells: E. coli BL21-CodonPlus (DE3)-RP, pET24a(+)
Protocol: as §3, §4, §5, §6

[7] = system: E. coli DH10B/pTU628 (PDC-91); test: Broth microdilution MIC, isogenic E. coli expressing PDC-91; type: cell-based; conditions: Escherichia coli
Protocol: as §1, §2

[8] = target: T1, PDC-88; test: Timed ESI-MS of acyl-enzyme formation, PDC-88; type: biochemical; conditions: timed ESI-MS, 1 to 30 min (ATM to 60 min)
Protocol: Timed ESI-MS experiments allow tracking of the reaction over time and determination of product modification, enabling the elucidation of mechanistic detail. Time courses were collected for both PDC-3 and PDC-88 with FEP (Fig. 4), CAZ (Fig. S1), TOL (Fig. S2), and ATM (Fig. S3). Substrate modification (here, loss of the R2 group) was determined based on differences between masses of apo and acyl-enzyme peaks (Fig. S4). […] Based on the differences in mass between the apo enzyme peaks, the acyl-enzyme peaks, and the molecular masses of each substrate, the mass of the adducts was determined and used to predict any portion of the substrate molecule that might be lost during the reaction (Fig. S4). As expected ([26][–][28]), all three cephalosporin antibiotics (FEP, CAZ, and TOL) lost their R2 groups during the reaction, while ATM (the sole monobactam) maintained its initial mass.
Five micrograms of PDC-3 or PDC-88 was incubated at the indicated molar ratio (1:2 to 1:100 PDC:β-lactam) in a total volume of 20 µL in 1× PBS at pH 7.4 at room temperature for the duration of the indicated time points. Reactions were quenched with the addition of 10 µL acetonitrile and added to 1 mL of 0.1% formic acid in water.
Data were collected using a Waters Synapt G2-Si quadrupole time-of-flight (Q-TOF) mass spectrometer and Waters Acquity UPLC BEH C18 1.7 µm column (2.1 by 100 mm). MassLynx V4.1 was used to deconvolute protein peaks. The tune settings for each sample were as follows: capillary voltage of 3.5 kV, sampling cone voltage of 35 V, source offset of 35 V, source temperature of 100°C, desolvation temperature of 500°C, cone gas flow rate of 100 L/h, desolvation gas flow rate of 800 L/h, and nebulizer bar at 6.0. Mobile phase A was 0.1% formic acid in water. Mobile phase B was 0.1% formic acid in acetonitrile. The mass accuracy of this system is ±5 Da.

[9] = FEP hydrolysis by PDC-88, 1× PBS pH 7.4, room temperature
[10] = FEP hydrolysis by PDC-3, 1× PBS pH 7.4, room temperature

Compound: CO/N=C(\C(=O)N[C@@H]1C(=O)N2C(C(=O)[O-])=C(C[N+]3(C)CCCC3)CS[C@H]12)c1csc(N)n1 [FEP, cefepime]
- MIC ([1]; read-out: MIC FEP AVI): 0.25 µg/mL (≈ 0.52 µM)
- MIC ([1]; read-out: MIC FEP TZB): 16 µg/mL (≈ 33.3 µM)
- MIC ([1]; E. coli DH10B/pTU626 (PDC-89), FEP with TAN at constant 4 µg/mL, read-out: MIC FEP TAN): 0.25 µg/mL (≈ 0.52 µM)
- MIC ([1]; E. coli DH10B/pTU626 (PDC-89), read-out: MIC FEP Alone): 32 µg/mL (≈ 66.6 µM)
- MIC ([2]; read-out: MIC FEP AVI): 0.5 µg/mL (≈ 1.04 µM)
- MIC ([2]; read-out: MIC FEP TZB): 32 µg/mL (≈ 66.6 µM)
- MIC ([2]; E. coli DH10B/pTU629 (PDC-92), FEP with TAN at constant 4 µg/mL, read-out: MIC FEP TAN): 0.25 µg/mL (≈ 0.52 µM)
- MIC ([2]; E. coli DH10B/pTU629 (PDC-92), read-out: MIC FEP Alone): 64 µg/mL (≈ 133 µM)
- Km [3, 9]: 16 ± 1 µM
- kcat [3, 9]: 0.16 ± 0.01 s⁻¹
- hydrolysis progress curve ([3]; PDC-88, over 900 s, compared to PDC-3): increased hydrolysis
- decrease of KM, PDC-88 compared to PDC-3 [4]: 12.8 fold
- decrease of kcat, PDC-88 compared to PDC-3 [4]: 1.6 fold
- higher catalytic efficiency (kcat/KM) of PDC-88 compared to PDC-3 [4]: approximately 8.3 fold
- higher catalytic efficiency (kcat/KM) of PDC-88 compared to PDC-3 ([4]; listed as cefepime): 8.3 fold
- MIC ([5]; read-out: MIC FEP AVI): 0.25 µg/mL (≈ 0.52 µM)
- MIC ([5]; read-out: MIC FEP TZB): 16 µg/mL (≈ 33.3 µM)
- MIC ([5]; E. coli DH10B/pTU625 (PDC-88), FEP with TAN at constant 4 µg/mL, read-out: MIC FEP TAN): 0.25 µg/mL (≈ 0.52 µM)
- MIC ([5]; E. coli DH10B/pTU625 (PDC-88), read-out: MIC FEP Alone): 32 µg/mL (≈ 66.6 µM)
- increase of cefepime MIC, PDC-88 compared to PDC-3 ([5]; {}): 16 fold
- Km [6, 10]: 205 ± 9 µM
- kcat [6, 10]: 0.25 ± 0.02 s⁻¹
- hydrolysis progress curve ([6]; PDC-3, over 900 s, versus UV-mediated background): slightly above background
- MIC ([7]; read-out: MIC FEP AVI): 0.5 µg/mL (≈ 1.04 µM)
- MIC ([7]; read-out: MIC FEP TZB): 32 µg/mL (≈ 66.6 µM)
- MIC ([7]; E. coli DH10B/pTU628 (PDC-91), FEP with TAN at constant 4 µg/mL, read-out: MIC FEP TAN): 0.5 µg/mL (≈ 1.04 µM)
- MIC ([7]; E. coli DH10B/pTU628 (PDC-91), read-out: MIC FEP Alone): 32 µg/mL (≈ 66.6 µM)
- acyl-enzyme complex formation and deacylation [8]: formed an acyl-enzyme complex with FEP, followed by relatively quick deacylation
